Where “and” joins values, the source holds several entries; their conditions need not be identical. Equal values may be shown once.
Experiment: molar heat capacity at constant pressure
Conditions: 101.33 kPa, Vacuum adiabatic calorimetry

N#CCCNc1ccccc1 [3-anilinopropanenitrile]
Conditions	molar heat capacity at constant pressure
83 K, Crystal 2	52.6 J/K/mol
83.11 K, Crystal 2	52.8 J/K/mol
85.94 K, Crystal 2	53.3 J/K/mol
88 K, Crystal 2	53.8 J/K/mol
88.94 K, Crystal 2	54.1 J/K/mol
91.87 K, Crystal 2	55.3 J/K/mol
93 K, Crystal 2	55 J/K/mol
94.73 K, Crystal 2	54.7 J/K/mol
97.54 K, Crystal 2	55.3 J/K/mol
98 K, Crystal 2	56 J/K/mol
100.3 K, Crystal 2	55.4 J/K/mol
103 K, Crystal 2	57 J/K/mol
103.01 K, Crystal 2	56 J/K/mol
105.67 K, Crystal 2	57.9 J/K/mol
108 K, Crystal 2	57.6 J/K/mol
108.29 K, Crystal 2	58.1 J/K/mol
110.86 K, Crystal 2	58.6 J/K/mol
113 K, Crystal 2	58.4 J/K/mol
113.39 K, Crystal 2	59.7 J/K/mol
115.91 K, Crystal 2	59.1 J/K/mol
118 K, Crystal 2	59.1 J/K/mol
118.39 K, Crystal 2	59.9 J/K/mol
120.86 K, Crystal 2	59.7 J/K/mol
123 K, Crystal 2	60.1 J/K/mol
123.29 K, Crystal 2	60.2 J/K/mol
125.69 K, Crystal 2	61.3 J/K/mol
128 K, Crystal 2	61.3 J/K/mol
128.08 K, Crystal 2	61.2 J/K/mol
130.44 K, Crystal 2	61.4 J/K/mol
132.78 K, Crystal 2	62 J/K/mol
133 K, Crystal 2	62.6 J/K/mol
135.1 K, Crystal 2	62.8 J/K/mol
137.39 K, Crystal 2	63.4 J/K/mol
138 K, Crystal 2	64.3 J/K/mol
139.66 K, Crystal 2	64.3 J/K/mol
141.91 K, Crystal 2	65 J/K/mol
143 K, Crystal 2	66 J/K/mol
144.13 K, Crystal 2	67.1 J/K/mol
146.35 K, Crystal 2	66.9 J/K/mol
148 K, Crystal 2	67.8 J/K/mol
148.54 K, Crystal 2	67.5 J/K/mol
150.73 K, Crystal 2	68.2 J/K/mol
152.89 K, Crystal 2	68.6 J/K/mol
153 K, Crystal 2	69.6 J/K/mol
155.03 K, Crystal 2	69.6 J/K/mol
157.16 K, Crystal 2	70.4 J/K/mol
158 K, Crystal 2	71.3 J/K/mol
159.28 K, Crystal 2	71.7 J/K/mol
161.38 K, Crystal 2	72.6 J/K/mol
163 K, Crystal 2	73.1 J/K/mol
163.47 K, Crystal 2	73 J/K/mol
165.54 K, Crystal 2	73.7 J/K/mol
167.59 K, Crystal 2	74.3 J/K/mol
168 K, Crystal 2	74.7 J/K/mol
169.63 K, Crystal 2	75.2 J/K/mol
171.66 K, Crystal 2	76 J/K/mol
173 K, Crystal 2	76.2 J/K/mol
173.68 K, Crystal 2	77 J/K/mol
175.7 K, Crystal 2	77.8 J/K/mol
177.67 K, Crystal 2	78.2 J/K/mol
178 K, Crystal 2	77.8 J/K/mol
179.65 K, Crystal 2	78.9 J/K/mol
181.61 K, Crystal 2	79.9 J/K/mol
183 K, Crystal 2	79.5 J/K/mol
183.57 K, Crystal 2	81.2 J/K/mol
185.51 K, Crystal 2	81.6 J/K/mol
187.45 K, Crystal 2	82.1 J/K/mol
188 K, Crystal 2	81.5 J/K/mol
189.37 K, Crystal 2	83 J/K/mol
191.29 K, Crystal 2	84 J/K/mol
193 K, Crystal 2	84 J/K/mol
193.19 K, Crystal 2	84 J/K/mol
195.09 K, Crystal 2	84.8 J/K/mol
196.97 K, Crystal 2	84.8 J/K/mol
198 K, Crystal 2	86.5 J/K/mol
198.84 K, Crystal 2	86.5 J/K/mol
200.68 K, Crystal 2	88.1 J/K/mol
202.52 K, Crystal 2	88.1 J/K/mol
203 K, Crystal 2	89.8 J/K/mol
204.36 K, Crystal 2	90.6 J/K/mol
206.19 K, Crystal 2	92.3 J/K/mol
208 K, Crystal 2	94 J/K/mol
208.02 K, Crystal 2	93.1 J/K/mol
209.84 K, Crystal 2	94.8 J/K/mol
211.66 K, Crystal 2	96.4 J/K/mol
213 K, Crystal 2	98.9 J/K/mol
213.46 K, Crystal 2	97.3 J/K/mol
215.26 K, Crystal 2	98.9 J/K/mol
217.05 K, Crystal 2	101 J/K/mol
218 K, Crystal 2	105 J/K/mol
218.84 K, Crystal 2	102 J/K/mol
220.61 K, Crystal 2	105 J/K/mol
222.38 K, Crystal 2	107 J/K/mol
223 K, Crystal 2	111 J/K/mol
224.14 K, Crystal 2	111 J/K/mol
225.88 K, Crystal 2	112 J/K/mol
227.6 K, Crystal 2	116 J/K/mol
228 K, Crystal 2	118 J/K/mol
229.29 K, Crystal 2	121 J/K/mol
230.95 K, Crystal 2	124 J/K/mol
232.59 K, Crystal 2	126 J/K/mol
233 K, Crystal 2	125 J/K/mol
234.22 K, Crystal 2	129 J/K/mol
235.85 K, Crystal 2	131 J/K/mol
237.47 K, Crystal 2	132 J/K/mol
238 K, Crystal 2	132 J/K/mol
239.08 K, Crystal 2	136 J/K/mol
240.67 K, Crystal 2	140 J/K/mol
242.24 K, Crystal 2	141 J/K/mol
243 K, Crystal 2	139 J/K/mol
243.78 K, Crystal 2	144 J/K/mol
245.31 K, Crystal 2	146 J/K/mol
246.85 K, Crystal 2	146 J/K/mol
248 K, Crystal 2	146 J/K/mol
248.39 K, Crystal 2	147 J/K/mol
249.91 K, Crystal 2	148 J/K/mol
251.45 K, Crystal 2	149 J/K/mol
252.99 K, Crystal 2	150 J/K/mol
253 K, Crystal 2	151 J/K/mol
254.53 K, Crystal 2	150 J/K/mol
256.06 K, Crystal 2	150 J/K/mol
257.59 K, Crystal 2	151 J/K/mol
258 K, Crystal 2	156 J/K/mol
259.11 K, Crystal 2	153 J/K/mol
260.62 K, Crystal 2	155 J/K/mol
262.12 K, Crystal 2	156 J/K/mol
263 K, Crystal 2	160 J/K/mol
263.62 K, Crystal 2	158 J/K/mol
265.1 K, Crystal 2	158 J/K/mol
266.58 K, Crystal 2	160 J/K/mol
268 K, Crystal 2	161 J/K/mol
268.05 K, Crystal 2	160 J/K/mol
269.52 K, Crystal 2	161 J/K/mol
270.98 K, Crystal 2	161 J/K/mol
272.44 K, Crystal 2	161 J/K/mol
273 K, Crystal 2	162 J/K/mol
273.9 K, Crystal 2	162 J/K/mol
275.36 K, Crystal 2	163 J/K/mol
276.81 K, Crystal 2	163 J/K/mol
278 K, Crystal 2	162 J/K/mol
278.26 K, Crystal 2	164 J/K/mol
279.7 K, Crystal 2	164 J/K/mol
281.13 K, Crystal 2	165 J/K/mol
282.56 K, Crystal 2	165 J/K/mol
283 K, Crystal 2	162 J/K/mol
283.98 K, Crystal 2	165 J/K/mol
285.41 K, Crystal 2	165 J/K/mol
286.82 K, Crystal 2	165 J/K/mol
288 K, Crystal 2	164 J/K/mol
288.23 K, Crystal 2	165 J/K/mol
289.63 K, Crystal 2	166 J/K/mol
291.02 K, Crystal 2	166 J/K/mol
292.39 K, Crystal 2	167 J/K/mol
293 K, Crystal 2	168 J/K/mol
293.74 K, Crystal 2	169 J/K/mol
295.08 K, Crystal 2	170 J/K/mol
296.42 K, Crystal 2	171 J/K/mol
297.76 K, Crystal 2	174 J/K/mol
298.15 K, Crystal 2	179 J/K/mol
299.09 K, Crystal 2	177 J/K/mol
300.41 K, Crystal 2	180 J/K/mol
301.72 K, Crystal 2	185 J/K/mol
303 K, Crystal 2	192 J/K/mol and 196 J/K/mol
304.27 K, Crystal 2	201 J/K/mol
305 K, Crystal 2	206 J/K/mol
305.5 K, Crystal 2	213 J/K/mol
306.69 K, Crystal 2	231 J/K/mol
307.82 K, Crystal 2	260 J/K/mol
308.85 K, Crystal 2	301 J/K/mol
309.78 K, Crystal 2	355 J/K/mol
310.63 K, Crystal 2	390 J/K/mol
311.5 K, Crystal 1	329 J/K/mol
312.51 K, Crystal 1	280 J/K/mol
313.55 K, Crystal 1	303 J/K/mol
314.54 K, Crystal 1	330 J/K/mol
315.48 K, Crystal 1	365 J/K/mol
316.35 K, Crystal 1	410 J/K/mol
317.16 K, Crystal 1	466 J/K/mol
317.89 K, Crystal 1	538 J/K/mol
318.55 K, Crystal 1	629 J/K/mol
319.14 K, Crystal 1	738 J/K/mol
319.66 K, Crystal 1	865 J/K/mol
320.12 K, Crystal 1	1014 J/K/mol
320.52 K, Crystal 1	1189 J/K/mol
320.86 K, Crystal 1	1380 J/K/mol
321.16 K, Crystal 1	1596 J/K/mol
321.42 K, Crystal 1	1846 J/K/mol
321.65 K, Crystal 1	2037 J/K/mol
321.85 K, Crystal 1	2361 J/K/mol
322.03 K, Crystal 1	2644 J/K/mol
322.19 K, Crystal 1	2885 J/K/mol
322.33 K, Crystal 1	3118 J/K/mol
322.45 K, Crystal 1	3359 J/K/mol
322.56 K, Crystal 1	3742 J/K/mol
322.66 K, Crystal 1	4116 J/K/mol
322.75 K, Crystal 1	4448 J/K/mol
322.83 K, Crystal 1	4648 J/K/mol
322.9 K, Crystal 1	5022 J/K/mol
322.97 K, Crystal 1	5280 J/K/mol
323.03 K, Crystal 1	5513 J/K/mol
323.09 K, Crystal 1	5621 J/K/mol
323.15 K, Crystal 1	6011 J/K/mol
323.2 K, Crystal 1	6386 J/K/mol
323.24 K, Crystal 1	6585 J/K/mol
323.29 K, Crystal 1	6627 J/K/mol
323.33 K, Crystal 1	6677 J/K/mol
323.37 K, Liquid	6568 J/K/mol
323.42 K, Liquid	6236 J/K/mol
323.46 K, Liquid	5862 J/K/mol
323.5 K, Liquid	5604 J/K/mol
323.55 K, Liquid	5446 J/K/mol
323.59 K, Liquid	5080 J/K/mol
323.64 K, Liquid	4673 J/K/mol
323.69 K, Liquid	4199 J/K/mol
323.73 K, Liquid	3816 J/K/mol
323.78 K, Liquid	3517 J/K/mol
323.83 K, Liquid	2536 J/K/mol
324 K, Liquid	1014 J/K/mol
324.78 K, Liquid	242 J/K/mol
325 K, Liquid	244 J/K/mol
325.93 K, Liquid	245 J/K/mol
327.07 K, Liquid	245 J/K/mol
328.2 K, Liquid	246 J/K/mol
329.34 K, Liquid	246 J/K/mol
330 K, Liquid	247 J/K/mol
330.46 K, Liquid	247 J/K/mol
331.59 K, Liquid	247 J/K/mol
332.72 K, Liquid	247 J/K/mol
333.84 K, Liquid	247 J/K/mol
334.96 K, Liquid	248 J/K/mol
335 K, Liquid	249 J/K/mol
336.08 K, Liquid	250 J/K/mol
337.19 K, Liquid	251 J/K/mol
338.3 K, Liquid	253 J/K/mol
339.4 K, Liquid	254 J/K/mol
340 K, Liquid	254 J/K/mol
340.5 K, Liquid	255 J/K/mol
342.69 K, Liquid	259 J/K/mol
343.77 K, Liquid	262 J/K/mol
344.84 K, Liquid	265 J/K/mol
345 K, Liquid	266 J/K/mol
345.9 K, Liquid	269 J/K/mol
346.95 K, Liquid	273 J/K/mol
348.01 K, Liquid	278 J/K/mol
349.04 K, Liquid	284 J/K/mol
350 K, Liquid	288 J/K/mol
351.08 K, Liquid	294 J/K/mol
352.08 K, Liquid	300 J/K/mol
353 K, Liquid	308 J/K/mol
353.07 K, Liquid	309 J/K/mol

Source: the NIST ThermoML archive (doi:10.1016/j.tca.2004.12.015)
